Earlier results, collected in patent US20020051978A1, “Methods and compositions for the identification, assessment, prevention and therapy of human cancers” (priority 2000, published 2002).
Read-outs that look alike come from different tables or passages of the source.

Tested on: 60 cancer cell lines (NCI 60 cancer cell line series)
Conditions: cited from earlier work

Measured: -Log (GI50)

CS(=O)(=O)OCCCCOS(C)(=O)=O [Busulfan]
3.7: Breast MCF7(I) (CL5001) | Breast MDA-N CL5012 | CNS SF-295 CL12015 | Colon HCC-2998 (CL4002) | Colon SW-620 (CL4009) | Melanoma LOX IMVI CL10001 | Melanoma SK-MEL-28 (CL10008) | Melanoma UACC-62 (CL10020) | Melanoma UACC-257 (CL10021) | NSCLC A549/ATCC (CL1004) | NSCLC EKVX (CL1008) | NSCLC HOP-62 (CL1026) | NSCLC NCI-H226 CL1013 | Ovarian OVCAR-3 CL6001 | Ovarian OVCAR-4 CL6002 | Prostate DU-145 CL11003
3.8: CNS SF-268 CL12014 | CNS SNB-75(I) CL12005 | Leukemia CCRF-CEM(I) (CL7003) | Leukemia HL-60(I) (CL7008) | NSCLC HOP-92 (CL1029) | Renal ACHN CL9023
4.0: NSCLC NCI-H460 CL1021
3.9: Leukemia MOLT-4 (CL7006) | Renal CAKI-1 CL9015 | Renal RXF-393 CL9016
3.6: Breast BT-549 (CL5013) | Breast HS-578T CL5006 | Breast MCF7/ADRr (CL5002) | Breast MDA-MB-231 CL5005 | Breast MDA-MB-435 (CL5011) | Breast T-47D (CL5014) | CNS SF-539 CL12016 | CNS SNB-19 (CL12002) | CNS U251(I) CL12009 | Colon COLO-250 CL4010 | Colon HCT-15 CL4015 | Colon HCT-116 (CL4003) | Colon HT29(I) CL4001 | Colon KM12 (CL4017) | Leukemia K562(I) CL7005 | Leukemia RPMI-8226(I) (CL7010) | Melanoma M14 (CL10014) | Melanoma MALME-3M CL10002 | Melanoma SK-MEL-2 (CL10005) | Melanoma SK-MEL-5 (CL10007) | NCSLC NCI-H522 CL1003 | NSCLC NCI-H23(I) CL1001 | NSCLC NCI-H332M CL1017 | Ovarian IGROV1 CL6010 | Ovarian OVCAR-5 CL6003 | Ovarian OVCAR-8 CL6005 | Ovarian SK-OV-3 CL6011 | Prostate PC-3(I) CL11001 | Renal 786-O CL9018 | Renal A498 CL9013 | Renal SN12C CL9008 | Renal TK10 CL9024 | Renal UO-31 CL9004
4.1: Leukemia SR CL7019

O=C(O)CCCc1ccc(N(CCCl)CCCl)cc1 [Chlorambucil]
4.2: Melanoma M14 (CL10014) | Melanoma MALME-3M CL10002 | NSCLC A549/ATCC (CL1004) | NSCLC HOP-92 (CL1029) | Prostate DU-145 CL11003 | Renal UO-31 CL9004
4.0: Breast BT-549 (CL5013) | CNS SNB-19 (CL12002) | Colon HCC-2998 (CL4002) | Colon HCT-15 CL4015 | Colon HCT-116 (CL4003) | Melanoma SK-MEL-28 (CL10008) | Ovarian OVCAR-3 CL6001 | Ovarian OVCAR-5 CL6003 | Ovarian SK-OV-3 CL6011 | Prostate PC-3(I) CL11001
5.3: Leukemia MOLT-4 (CL7006)
4.7: Melanoma UACC-62 (CL10020)
5.1: Leukemia HL-60(I) (CL7008)
4.9: NSCLC NCI-H460 CL1021
4.5: Breast MCF7(I) (CL5001) | CNS SF-268 CL12014 | Renal 786-O CL9018 | Renal SN12C CL9008
4.1: Colon SW-620 (CL4009) | Leukemia RPMI-8226(I) (CL7010) | Melanoma SK-MEL-5 (CL10007) | Melanoma UACC-257 (CL10021) | NSCLC NCI-H226 CL1013 | Ovarian OVCAR-8 CL6005
4.8: Renal ACHN CL9023 | Renal CAKI-1 CL9015
4.3: Breast MCF7/ADRr (CL5002) | Breast T-47D (CL5014) | CNS SNB-75(I) CL12005
4.4: CNS SF-295 CL12015 | CNS U251(I) CL12009 | Melanoma LOX IMVI CL10001 | NSCLC HOP-62 (CL1026)
3.7: Breast HS-578T CL5006 | NSCLC NCI-H332M CL1017
4.6: CNS SF-539 CL12016 | NCSLC NCI-H522 CL1003 | NSCLC NCI-H23(I) CL1001 | Renal RXF-393 CL9016
3.9: Breast MDA-MB-435 (CL5011) | Breast MDA-N CL5012 | Colon COLO-250 CL4010 | Colon HT29(I) CL4001 | Leukemia K562(I) CL7005 | Ovarian IGROV1 CL6010 | Ovarian OVCAR-4 CL6002 | Renal A498 CL9013
3.8: Breast MDA-MB-231 CL5005 | Colon KM12 (CL4017) | Melanoma SK-MEL-2 (CL10005) | NSCLC EKVX (CL1008) | Renal TK10 CL9024
5.2: Leukemia CCRF-CEM(I) (CL7003) | Leukemia SR CL7019
